From patent US12006294B2, “Therapeutic compounds” (REGENTS OF THE UNIVERSITY OF MINNESOTA, priority 2017, dated 2024) come the findings set out here.

Counter-ions that a name gives are not always drawn. Like-named read-outs stand apart in the source and are kept apart here.

For this assay, the system named is Hela Cells. Nature of the assay: Cellular ER stress model (tunicamycin, WST-8 cell viability). The following applies: Homo sapiens, HeLa, 48 h. In general terms: Formazan colour is commonly taken as a measure of viable cells.
[1] abbreviates: read-out: % Cell Survival Cmpd(2.5 μM) + Tuni, Hela cells, compound 2.5 μM + tunicamycin, WST-8 viability 48 hours after tunicamycin treatment.
Where [2] appears, read: read-out: Compounds ERS (vs Tn), ERS activity vs Tuni = % cell survival (compound)/% cell survival (tunicamycin), compound 2.5 μM.

In the case of `N=C(N)NC(=O)Cc1c(Cl)cccc1Cl` [JM2-287-2, N-carbamimidoyl-2-(2,6-dichlorophenyl)acetamide hydrochloride], the viability at 2.5 µM under setting [1] is 33% and the viability at 2.5 µM under setting [2] turned out to be 111%.

As to `CN(C)C(=N)N/N=C/c1c(Cl)cccc1Cl` [JM2-289-2, (E)-2-(2,6-dichlorobenzylidene)-N,N-dimethylhydrazine-1-carboximidamide hydroiodide], the viability at 2.5 µM under setting [1] was determined as 33.8% and the viability at 2.5 µM under setting [2] is 128%.

Regarding `N=C(N)N/N=C/c1cc(Cl)ccc1Cl` [JM3-11-2, (E)-2-(2,5-dichlorobenzylidene)hydrazine-1-carboximidamide acetate], the viability at 2.5 µM runs as follows: under setting [1], 40.2%; under setting [2], 153%.

In the case of `N=C(N)N/N=C/c1ccccc1[N+](=O)[O-]` [JM3-13-2, (E)-2-(2-nitrobenzylidene)hydrazine-1-carboximidamide acetate], the viability at 2.5 µM under setting [1] turned out to be 27.4% and the viability at 2.5 µM under setting [2] was determined as 104%.

In the case of `N=C(N)N/N=C/c1ccccc1O` [JM3-17-2, (E)-2-(2-hydroxybenzylidene)hydrazine-1-carboximidamide acetate], the viability at 2.5 µM was found to be 28.7% under setting [1] and 109% under setting [2].

As for `N=C(N)NCC(O)c1c(Cl)cccc1Cl` (stereo not shown) [JM3-27-2, 1-(2-(2,6-dichlorophenyl)-2-hydroxyethyl)guanidine], the viability at 2.5 µM reads like this: under setting [1], 28.6%; under setting [2], 109%.

Take `N=C(N)N/N=C/c1c(Cl)ccnc1Cl` [JM3-29-2, (E)-2-((2,4-dichloropyridin-3-yl)methylene)hydrazine-1-carboximidamide acetate]: the viability at 2.5 µM was 32.2% under setting [1] and 122% under setting [2].

With `N=C(N)N/N=C/c1ccc(Br)cc1Cl` [JM3-57-2, (E)-2-(4-bromo-2-chlorobenzylidene)hydrazine-1-carboximidamide acetate], the viability at 2.5 µM is, setting by setting: under setting [1], 28.1%; under setting [2], 107%.

As to `N=C(N)N/N=C/c1ccc(-c2ccccc2)cc1Cl` [JM3-63-2, (E)-2-((3-chloro-[1,1′-biphenyl]-4-yl)methylene)hydrazine-1-carboximidamide acetate], the viability at 2.5 µM by setting is: under setting [1], 15.9%; under setting [2], 60%.

In the case of `N=C(N)N/N=C/c1c(Cl)cc(-c2ccccc2)cc1Cl` [JM3-67-2, (E)-2-((3,5-dichloro-[1,1′-biphenyl]-4-yl)methylene)hydrazine-1-carboximidamide], the viability at 2.5 µM under setting [1] was 23.3% and the viability at 2.5 µM under setting [2] was 102%.

As to `CCc1cccc(Cl)c1/C=N/NC(=N)N` [JM3-81-2, (E)-2-(2-chloro-6-ethylbenzylidene)hydrazine-1-carboximidamide acetate], the viability at 2.5 µM turned out to be 29.9% under setting [1] and 130% under setting [2].

Regarding `CC(C)c1cccc(Cl)c1/C=N/NC(=N)N` [JM3-89-2, (E)-2-(2-chloro-6-isopropylbenzylidene)hydrazine-1-carboximidamide acetate], the viability at 2.5 µM came to 22% under setting [1] and 96% under setting [2].

Regarding `CC(C)c1cccc(C(C)C)c1/C=N/NC(=N)N` [JM3-99-2, (E)-2-(2,6-diisopropylbenzylidene)hydrazine-1-carboximidamide], the viability at 2.5 µM under setting [1] was 20.9% and the viability at 2.5 µM under setting [2] was found to be 91%.

`Clc1cccc(Cl)c1Cc1ncc[nH]1` [JM3-131-2, 2-(2,6-dichlorobenzyl)-1H-imidazole]: the viability at 2.5 µM under setting [1] came out at 22.8% and the viability at 2.5 µM under setting [2] was 100%.

For the molecule `N=C(N)N/N=C/c1c(C(F)(F)F)cccc1C(F)(F)F` [JM3-141-2, (E)-2-(2,6-bis(trifluoromethyl)benzylidene)hydrazine-1-carboximidamide acetate], the viability at 2.5 µM is, setting by setting: under setting [1], 19.6%; under setting [2], 86%.

For the molecule `Clc1cccc(/C=N/NC2=NCCN2)c1Cl` [JM3-149-2, (E)-2-(2-(2,3-dichlorobenzylidene)hydrazinyl)-4,5-dihydro-1H-imidazole hydrochloride], the viability at 2.5 µM under setting [1] was determined as 29.1% and the viability at 2.5 µM under setting [2] was determined as 125%.

For `Clc1ccc(Cl)c(/C=N/NC2=NCCN2)c1Cl` [JM3-151-2, (E)-2-(2-(2,3,6-trichlorobenzylidene)hydrazinyl)-4,5-dihydro-1H-imidazole hydrochloride], the viability at 2.5 µM is, setting by setting: under setting [1], 24.2%; under setting [2], 104%.

In the case of `Clc1cccc(/C=N/NC2=NCCCN2)c1Cl` [JM3-153-2, (E)-2-(2-(2,3-dichlorobenzylidene)hydrazinyl)-1,4,5,6-tetrahydropyrimidine hydrochloride], the viability at 2.5 µM under setting [1] amounted to 36% and the viability at 2.5 µM under setting [2] amounted to 155%.

`Clc1ccc(Cl)c(/C=N/NC2=NCCCN2)c1Cl` [JM3-155-2, (E)-2-(2-(2,3,6-trichlorobenzylidene)hydrazinyl)-1,4,5,6-tetrahydropyrimidine hydrochloride]: the viability at 2.5 µM is, setting by setting: under setting [1], 31.2%; under setting [2], 135%.

Regarding `CCCCNC(=N)N/N=C/c1c(Cl)cccc1Cl` [JM3-161-2, (E)-N-butyl-2-(2,6-dichlorobenzylidene)hydrazine-1-carboximidamide hydroiodide], the viability at 2.5 µM under setting [1] is 14.7% and the viability at 2.5 µM under setting [2] was found to be 63%.

For `Clc1cccc(CC2=NCCN2)c1Cl` [JM3-179-2, 2-(2,3-dichlorobenzyl)-4,5-dihydro-1H-imidazole], the viability at 2.5 µM under setting [1] amounted to 20.4% and the viability at 2.5 µM under setting [2] worked out at 88%.

For `Clc1cccc(CC2=NCCCN2)c1Cl` [JM3-181-2, 2-(2,3-dichlorobenzyl)-1,4,5,6-tetrahydropyrimidine], the viability at 2.5 µM is, setting by setting: under setting [1], 19.6%; under setting [2], 102%.

Take `N=C(N)N/N=C/c1ccccc1I` [JM3-183-2, (E)-2-(2-iodobenzylidene)hydrazine-1-carboximidamide acetate]: the viability at 2.5 µM runs as follows: under setting [1], 24.2%; under setting [2], 104%.

For the molecule `Cc1[nH]c(N/N=C/c2c(Cl)cccc2Cl)nc(=O)c1C` [JM3-191-2, (E)-2-(2-(2,6-dichlorobenzylidene)hydrazinyl)-5,6-dimethylpyrimidin-4(1H)-one], the viability at 2.5 µM by setting is: under setting [1], 40.6%; under setting [2], 175%.

In the case of `Cc1[nH]c(N/N=C/c2cccc(Cl)c2Cl)nc(=O)c1C` [JM3-195-2, (E)-2-(2-(2,3-dichlorobenzylidene)hydrazinyl)-5,6-dimethylpyrimidin-4(1H)-one], the viability at 2.5 µM runs as follows: under setting [1], 29.7%; under setting [2], 128%.

`Cc1cc(=O)nc(N/N=C/c2c(Cl)cccc2Cl)[nH]1` [JM3-197-2, (E)-2-(2-(2,6-dichlorobenzylidene)hydrazinyl)-6-methylpyrimidin-4(1H)-one]: the viability at 2.5 µM by setting is: under setting [1], 20.4%; under setting [2], 106%.

As for `Cc1cc(=O)nc(N/N=C/c2cccc(Cl)c2Cl)[nH]1` [JM3-199-2, (E)-2-(2-(2,3-dichlorobenzylidene)hydrazinyl)-6-methylpyrimidin-4(1H)-one], the viability at 2.5 µM came to 22.9% under setting [1] and 120% under setting [2].

Consider `Cc1cc(=O)nc(N/N=C/c2c(Cl)ccc(Cl)c2Cl)[nH]1` [JM3-201-2, (E)-6-methyl-2-(2-(2,3,6-trichlorobenzylidene)hydrazinyl)pyrimidin-4(1H)-one], for which the viability at 2.5 µM by setting is: under setting [1], 20%; under setting [2], 104%.

In the case of `Cc1[nH]c(N/N=C/c2c(Cl)ccc(Cl)c2Cl)nc(=O)c1C` [JM3-205-2, (E)-5,6-dimethyl-2-(2-(2,3,6-trichlorobenzylidene)hydrazinyl)pyrimidin-4(1H)-one], the viability at 2.5 µM reads like this: under setting [1], 20.7%; under setting [2], 108%.

Turning to `Cc1[nH]c(N/N=C/c2c(F)cccc2Cl)nc(=O)c1C` [JM3-207-2, (E)-2-(2-(2-chloro-6-fluorobenzylidene)hydrazinyl)-5,6-dimethylpyrimidin-4(1H)-one], the viability at 2.5 µM reads like this: under setting [1], 23.1%; under setting [2], 120%.

As to `Cc1[nH]c(N/N=C/c2ccc(Cl)c(Cl)c2)nc(=O)c1C` [JM3-209-2, (E)-2-(2-(3,4-dichlorobenzylidene)hydrazinyl)-5,6-dimethylpyrimidin-4(1H)-one], the viability at 2.5 µM is, setting by setting: under setting [1], 21.6%; under setting [2], 113%.

As for `Cc1cc(=O)nc(N/N=C/c2ccc(Cl)c(Cl)c2)[nH]1` [JM3-211-2, (E)-2-(2-(3,4-dichlorobenzylidene)hydrazinyl)-6-methylpyrimidin-4(1H)-one], the viability at 2.5 µM was determined as 20.2% under setting [1] and 105% under setting [2].

Regarding `Cc1[nH]c(N/N=C/c2ccccc2Cl)nc(=O)c1C` [JM3-213-2, (E)-2-(2-(2-chlorobenzylidene)hydrazinyl)-5,6-dimethylpyrimidin-4(1H)-one], the viability at 2.5 µM reads like this: under setting [1], 22.8%; under setting [2], 119%.

Turning to `Cc1cc(=O)nc(N/N=C/c2ccccc2Cl)[nH]1` [JM3-215-3, (E)-2-(2-(2-chlorobenzylidene)hydrazinyl)-6-methylpyrimidin-4(1H)-one], the viability at 2.5 µM is 21% under setting [1] and 110% under setting [2].

Consider `NC(=O)N/N=C/c1ccccc1Br` [JM3-219-4, (E)-2-(2-bromobenzylidene)hydrazine-1-carboxamide hydrochloride], for which the viability at 2.5 µM reads like this: under setting [1], 20%; under setting [2], 104%.

For the molecule `NC(=O)N/N=C/c1ccccc1F` [JM3-221-2, (E)-2-(2-fluorobenzylidene)hydrazine-1-carboxamide hydrochloride], the viability at 2.5 µM was found to be 28.9% under setting [1] and 122% under setting [2].

Turning to `NC(=O)N/N=C/c1ccccc1Cl` [JM3-223-2, (E)-2-(2-chlorobenzylidene)hydrazine-1-carboxamide hydrochloride], the viability at 2.5 µM turned out to be 28% under setting [1] and 118% under setting [2].

Turning to `NC(=O)N/N=C/c1ccccc1I` [JM3-225-2, (E)-2-(2-iodobenzylidene)hydrazine-1-carboxamide hydrochloride], the viability at 2.5 µM reads like this: under setting [1], 22.8%; under setting [2], 96%.
